Calls of active or inactive are those of the source.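 How the source made its calls: active means mean half-maximal activating concentration from the dose-response fit at or below a set limit; inactive means the rest.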

This experiment has as its target CHO-XBP1 luciferase reporter, IRE1-XBP1 UPR activation. The experiment in a line: XBP1 luciferase reporter activation – CHO-XBP1 cells, luminescence, counter-screen for apoptotic UPR arm activators, dose response (AID 489040).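 Further: reporter read after six hours of compound exposure.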
Take `Cc1ccc(-c2nc(NC(=O)c3nn(C)cc3[N+](=O)[O-])sc2C)cc1`: the EC50 (in general, the midpoint of the concentration-response curve) was > 80 µM (inactive).
The value for `CCCC[C@@H](C)C[C@@H](C)C(=O)N(C)[C@@H](CC(C)C)C(=O)N[C@H](C(=O)N(C)[C@H](C(=O)N1C[C@@H](O)C[C@H]1C(=O)N1C(=O)C=C[C@@H]1C)C(C)C)C(C)OC(C)=O` (stereo partly specified) was 15.6 µM; that for `C[C@@H](NC(=O)c1coc(=O)c(Br)c1)c1ccccc1` was > 80 µM (inactive); that for `C/C(=N\NC(=O)COc1ccccc1-c1ccccc1)c1ccccn1` was > 80 µM (inactive).
For `O=C(/C=C/c1ccc(O)c(O)c1)OCCc1ccccc1`, the EC50 is > 80 µM (inactive).
The value for `COc1cc(/C=C(/C(=O)c2cccs2)c2nc3ccccc3[nH]2)cc(OC)c1O` was > 80 µM (inactive); that for `Cc1ccccc1S(=O)(=O)NC1OC(=O)C(Cl)=C1Cl` (stereo unspecified) was > 80 µM (inactive); that for `C/C(CC(C)(C)C1CCCCC1)=N\NC(N)=S` was “inactive”.
For the compound `O=C(Nc1cccc(S(=O)(=O)N2CCCCC2)c1)c1ccc([N+](=O)[O-])o1`, the EC50 was > 80 µM (inactive).
The value for `Cc1ccc(C(=O)/C=C/C(=O)c2ccc(C)cc2)cc1` was > 80 µM (inactive); that for `Cc1ccc(Nc2nc(-c3ccc(O)c(O)c3)cs2)nc1` was > 80 µM (inactive).
The entry for `COc1ccc(-c2nc(-c3ccccc3)nc(Cl)c2C#N)cc1` is “inactive”; for `COc1ccc(C(=O)NCC(=O)N/N=C/c2ccc([N+](=O)[O-])o2)cc1OC` it is > 80 µM (inactive); for `CCc1ccc(N2C(=O)NC(=O)/C(=C\C=C\c3ccco3)C2=O)cc1` it is > 80 µM (inactive).
The value for `Cc1ccc(C(=O)C(C(=O)/C=C/c2ccccc2)=C2SCCCS2)cc1` was > 80 µM (inactive).
As for `O=C(Nc1ccc(-c2nc3ncccc3o2)cc1)c1ccc([N+](=O)[O-])o1`, the EC50 is > 80 µM (inactive).
For `CCOC(=O)c1c(C)oc2c1c(C(c1cccnc1)N1CCCCC1)c(O)c1ccccc12` (stereo unspecified), the EC50 was > 80 µM (inactive).
The figure for `O=C(Cn1cc(/C=C\[N+](=O)[O-])c2ccccc21)Nc1ccccc1` is > 80 µM (inactive); for `COc1cc(OC)cc(C(=O)NC(=S)Nc2cc3oc4ccccc4c3cc2OC)c1` it is > 80 µM (inactive).
The value for `Cc1ccc(/C=C/C(=O)c2ccc([N+](=O)[O-])o2)cc1` was > 80 µM (inactive); that for `CCCCNC1C(CC)C(CCC)C(C#N)(C#N)C1(C#N)C#N` (stereo unspecified) was > 80 µM (inactive); that for `CS(=O)(=O)c1nc(-c2ccc(Br)cc2)cc(-c2ccccc2)c1C#N` was > 80 µM (inactive).
The figure for `Cc1ccc(CS(=O)(=O)c2ncc(Cl)c(C(=O)Nc3nnc(C(C)C)s3)n2)cc1` is > 80 µM (inactive); for `COc1ccc(OC)c(N=Cc2c(O)c3ccccc3oc2=O)c1` it is 12 µM.
Consider `O=C1NC(=O)N(c2ccccc2)C(=O)/C1=C\C=C\c1ccccc1`, for which the EC50 was > 80 µM (inactive).
Regarding `Oc1c(N=Nc2ccccn2)ccc2ccccc12`, the EC50 was > 80 µM (inactive).
The figure for `CCc1ccc(NC(=O)C(CC)Sc2nc3cc4c(cc3c(=O)n2Cc2ccco2)OCO4)cc1` (stereo unspecified) is > 80 µM (inactive); for `O=C1NC(=O)N(Cc2ccccc2)C(=O)/C1=C\C=C\c1ccco1` it is > 80 µM (inactive).
The figure for `CCCN1Cc2cccc(C(=O)Nc3ccc(-c4nc5ccccc5[nH]4)cc3)c2C1=O` is > 80 µM (inactive).
Regarding `Cc1cc(C(=O)CCl)c(C)n1-c1cccc([N+](=O)[O-])c1`, the EC50 was > 80 µM (inactive).
The entry for `O=C(Nc1nc(-c2ccccn2)cs1)c1ccc(Br)s1` is “inactive”; for `COc1ccccc1-c1cc(C(F)(F)F)nc(S(=O)(=O)CCCC(=O)NCc2ccc(F)cc2)n1` it is > 80 µM (inactive); for `COc1ccc(OC)c(Nc2nc(-c3ccc(O)c(O)c3)cs2)c1` it is > 80 µM (inactive).
The value for `COc1ccc(C2=CC(=O)N(Nc3ccccc3)C2=O)cc1` was > 80 µM (inactive); that for `COc1ccc(-n2c(C)cc(C(=O)CCl)c2C)cc1` was 4.68 µM; that for `COc1ccc(OC)c(/C=C/C(=O)N2C(=O)c3cccc(N)c3C2=O)c1` was > 80 µM (inactive).
The figure for `COc1cccc2sc(N3CCN(c4nc5ccccc5s4)CC3)nc12` is 18.7 µM.
Turning to `O=C(/C(=C/c1cccc(Cl)c1)c1nc2ccccc2[nH]1)c1ccccc1`, the EC50 was > 80 µM (inactive).
Regarding `CCN(CC)S(=O)(=O)c1ccc(N/N=C(\C)c2ccc3c(c2)OCO3)c([N+](=O)[O-])c1`, the EC50 is 17.5 µM.
The figure for `O=C1NN(c2cccc(Br)c2)C(=O)/C1=C/c1cccs1` is 8.89 µM; for `Nc1nnnn1/N=C/C(Br)=C/c1ccccc1` it is > 80 µM (inactive).
The figure for `S=C(Nc1ccccc1)c1ccccn1` is > 80 µM (inactive); for `Cc1ccc(C(=O)Cn2c(C(=O)/C=C/c3ccccc3)nc3ccccc32)cc1` it is 18.3 µM.
For `O=C(Cn1ncc(Cl)c(Cl)c1=O)c1ccc2c(c1)OCCO2`, the EC50 is > 80 µM (inactive).
The value for `O=C(Nc1nc2ccc(F)cc2s1)c1ccccn1` was > 80 µM (inactive).
In the case of `CC(=O)/C(=N\Nc1ccc(Cl)cc1Cl)Sc1cccc2cccnc12`, the EC50 is > 80 µM (inactive).
The value for `CCOC(=O)c1cnc(Nc2nc3ccccc3o2)nc1CSC(=S)N1CCCCC1` was 9.07 µM.
In the case of `O=C(CCl)Nc1cccc(CP(=O)(c2ccccc2)c2ccccc2)c1`, the EC50 is > 80 µM (inactive).
The figure for `Cn1c(-c2cccc(OCc3ccccc3)c2)nc2c1c(=O)[nH]c(=O)n2Cc1ccccc1` is > 80 µM (inactive); for `Cc1ccc2cccc(NS(=O)(=O)c3ccccc3)c2n1` it is > 80 µM (inactive).
The value for `COC(=O)c1c(NC(=O)c2ccc([N+](=O)[O-])o2)sc2c1CCN(C(C)C)C2` was > 80 µM (inactive).
The value for `COc1ccc(N2C(=O)/C(=C/c3cccs3)C(=O)NC2=S)cc1` was > 80 µM (inactive); that for `CCOC(=O)N1CCN(Cc2cc(Cl)c3cccnc3c2O)CC1` was > 80 µM (inactive).
For the compound `CC1=C/C(=N\OC(=O)/C=C/c2ccccc2)C(C)=CC1=O`, the EC50 is > 80 µM (inactive).
Take `CCc1ccccc1NC(=S)N=Nc1c(O)n(C)c2ccc(S(=O)(=O)N3CCOCC3)cc12`: the EC50 was > 80 µM (inactive).
The value for `Cc1cc(C(=O)c2ccc(C(C)(C)C)cc2)c(NC(=O)CCl)s1` was > 80 µM (inactive).
The value for `Cc1nc(SCC(=O)Nc2ccc(F)cc2)c(C#N)c(C)c1CC(=O)c1ccc(Br)cc1` was > 80 µM (inactive); that for `O=C(/C(=C\c1ccccc1)c1nc2ccccc2[nH]1)c1ccc(Cl)cc1` was > 80 µM (inactive); that for `O=C(c1ccc(Cl)cc1)C(CN1CCCC1)c1ccccc1` (stereo unspecified) was > 80 µM (inactive).
The figure for `COc1ccc(Cn2c(SCc3ccc(C)cc3)nc3cc(OC)c(OC)cc3c2=N)cc1Cl` is > 80 µM (inactive).
For the compound `O=C(/C(=C/c1ccc(Cl)cc1)c1nc2ccccc2[nH]1)c1cccs1`, the EC50 was > 80 µM (inactive).
Turning to `O=C(Nc1cccc(-c2nc3cccnc3s2)c1)C1c2ccccc2Oc2ccccc21`, the EC50 is 5.58 µM.
The figure for `CCCN(CCC)C(=O)c1cc([N+](=O)[O-])cc2c1-c1ccc([N+](=O)[O-])cc1C2=C(C#N)C#N` is > 80 µM (inactive).
`COc1ccc(/C=N/Nc2cc(C)nc(-n3nc(C)cc3C)n2)cc1`: the EC50 was > 80 µM (inactive).
`O=C(N/N=C/c1cccc([N+](=O)[O-])c1)c1cc2c(ccc3ccccc32)o1`: the EC50 is > 80 µM (inactive).
The figure for `Oc1ccc(/C=N/Nc2cc(N3CCOCC3)nc(N3CCOCC3)n2)cc1O` is > 80 µM (inactive); for `Cc1ccc(-c2nc(NC(=O)c3nn(C)cc3[N+](=O)[O-])sc2C)cc1C` it is > 80 µM (inactive).
The figure for `O=C(N/N=C/c1ccccn1)c1ccc(Cl)c(Cl)c1` is > 80 µM (inactive); for `O=C(Nc1nc(-c2ccccn2)cs1)c1cc(Cl)ccc1[N+](=O)[O-]` it is > 80 µM (inactive); for `O=C(Oc1ccccc1/C=C\C(=O)c1cc2ccccc2o1)c1ccccc1` it is > 80 µM (inactive).
For the compound `O=c1[nH]c(=S)n(C2CC2)c(O)c1C=Nc1cccc(C(F)(F)F)c1`, the EC50 was > 80 µM (inactive).
The figure for `Cc1ccc(S(=O)(=O)Nc2cccc3cccnc23)c([N+](=O)[O-])c1` is > 80 µM (inactive); for `O=c1c2c3c(sc2ncn1/N=C/c1ccc([N+](=O)[O-])o1)CCCC3` it is > 80 µM (inactive); for `CCCOc1ccc(N2C(=O)CC(N(O)c3ccccc3)C2=O)cc1` (stereo unspecified) it is > 80 µM (inactive).
The value for `Oc1ccc(CN2CCC(Cc3ccccc3)CC2)c2cccnc12` was > 80 µM (inactive); that for `Cc1nc(NC(=O)/C=C/c2ccccc2)n[nH]1` was > 80 µM (inactive).
The value for `Oc1c(CN2CCN(c3ccc(F)cc3)CC2)cc(Cl)c2cccnc12` was > 80 µM (inactive).
As to `COc1ccc(C(c2c(C)[nH]n(C(N)=S)c2=O)C(C#N)C#N)cc1` (stereo unspecified), the EC50 was > 80 µM (inactive).
The value for `COc1cc(/C=C/[N+](=O)[O-])ccc1O` was > 80 µM (inactive); that for `Cn1nc([N+](=O)[O-])c(C(C#N)c2ccccn2)c(Cl)c1=O` (stereo unspecified) was > 80 µM (inactive); that for `Cc1cccc(CSc2cccc3cccnc23)c1` was > 80 µM (inactive).
For the compound `O=C(Nc1nc(-c2ccc3ccccc3c2)cs1)c1ccc(N2C(=O)CCC2=O)cc1`, the EC50 was > 80 µM (inactive).
The value for `Cc1ccc(-c2nn(-c3ccccc3)cc2C=C2C(=O)CC(C)(C)CC2=O)cc1` was > 80 µM (inactive).
The figure for `Cc1ccc(CS(=O)(=O)c2ncc(Cl)c(C(=O)Nc3ccc(OC(F)F)cc3)n2)cc1` is > 80 µM (inactive); for `CCN1CSC(=S)N(Cc2ccccc2)C1` it is > 80 µM (inactive).
The figure for `O=[N+]([O-])c1ccccc1S(=O)(=O)Nc1cccc2cccnc12` is > 80 µM (inactive).

For the origin of these results see PubChem BioAssay AID489040 (Sanford-Burnham Center for Chemical Genomics, 2010).
